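Values below derive from 48-hour exposures of cells grown in 96-well plates, with endpoints linearly interpolated between the two concentrations bracketing the appropriate inhibition level. TGI denotes the concentration required for complete inhibition of growth.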 Bounds are passed on as bounds.

Some test systems named below: COLO 205 colon; SF-268 CNS; SK-MEL-2 melanoma; UACC-62 melanoma.
What all share (experiment): DTP human tumour cell line panel, 48 h

As usually defined, the TGI is the concentration giving total growth inhibition. Consider `CCOC(=O)c1c(NC(=O)c2cccs2)sc2c1CCC2`, for which the TGI with COLO 205 colon, in the test on SF-268 CNS, in the test on SK-MEL-2 melanoma and in the test on UACC-62 melanoma was > 100 µM each time.

`CCOC(=O)N(NC(=O)NC(C)C)c1ccccc1`: the TGI with COLO 205 colon, in the test on SK-MEL-2 melanoma and with UACC-62 melanoma was > 100 µM throughout.

Regarding `O=S(=O)(SC1=NCCN1)c1ccc2ccccc2c1`, the TGI is 37.7 µM in the test with COLO 205 colon, 52.5 µM in the test with SF-268 CNS, 80 µM in the test on SK-MEL-2 melanoma and > 100 µM in the test with UACC-62 melanoma.

For the compound `O=c1[nH]c(=O)n(CCOc2ccccc2)cc1Nc1ccccc1`, the TGI in the test with COLO 205 colon, with SF-268 CNS and in the test with UACC-62 melanoma was > 100 µM throughout.

With `CCC/C=C/c1cc2c(cc1O)CC[C@@H]1[C@@H]2CC[C@]2(C)[C@@H](O)CC[C@@H]12`, the TGI with COLO 205 colon was 36.5 µM; with SF-268 CNS, 42.6 µM; in the test on SK-MEL-2 melanoma, 32.1 µM; in the test on UACC-62 melanoma, 29 µM.

Take `O=C1CN(C(=O)C2CCCN2C(=O)C2CCCN2)C(=O)CN1` (centres undefined): the TGI in the test on COLO 205 colon, in the test on SF-268 CNS and with UACC-62 melanoma was > 100 µM throughout.

On to `CN(C)/N=C(/CC(O)(C(F)(F)F)C(F)(F)F)c1ccc([N+](=O)[O-])cc1`, for which the TGI in the test on COLO 205 colon, with SF-268 CNS, in the test on SK-MEL-2 melanoma and in the test with UACC-62 melanoma was > 100 µM each time.

Regarding `Cc1cc(C)c2c(O)c(S(=O)(=O)c3ccc(Cl)cc3)c(=O)oc2c1`, the TGI in the test with COLO 205 colon, in the test on SF-268 CNS, with SK-MEL-2 melanoma and in the test with UACC-62 melanoma was > 100 µM throughout.

In the case of `O=c1c2ccccc2[nH]c2c(Cl)cc(Cl)c(NC3CCCCC3)c12`, the TGI in the test on COLO 205 colon is > 100 µM; in the test on SK-MEL-2 melanoma, 41.9 µM; in the test on UACC-62 melanoma it was 36.6 µM.

For the compound `O=P1(O)c2ccccc2CCc2ccccc21`, the TGI in the test on COLO 205 colon, in the test with SF-268 CNS, with SK-MEL-2 melanoma and in the test on UACC-62 melanoma was > 100 µM throughout.

For the compound `CN(CCC(=O)O)C1=Nc2ccc(Cl)cc2C(c2ccccc2)=[N+]([O-])C1`, the TGI in the test on COLO 205 colon, in the test with SF-268 CNS, in the test on SK-MEL-2 melanoma and in the test with UACC-62 melanoma was > 100 µM in each case.

Take `Cc1c(C)c(C)n(C2OC(CO)C(O)C(O)C2O)c(=S)c1C#N` (centres undefined): the TGI in the test with COLO 205 colon, in the test on SF-268 CNS, in the test on SK-MEL-2 melanoma and in the test with UACC-62 melanoma was > 100 µM in each case.

For `CCCCCCCCCCCCN(CC(O)C(O)C(OC1OC(CO)C(O)C(O)C1O)C(O)CO)C(=O)CCCCCCCCCCC` (centres undefined), the TGI was found to be 35.3 µM with COLO 205 colon, 43.6 µM in the test on SF-268 CNS, 58.8 µM with SK-MEL-2 melanoma and 38.8 µM with UACC-62 melanoma.

Regarding `COc1ccc(C[C@@H](CO)NC2=C(C#N)CCC2)cc1`, the TGI in the test with COLO 205 colon, with SF-268 CNS, in the test on SK-MEL-2 melanoma and in the test with UACC-62 melanoma was > 100 µM each time.

In the case of `CC(C)NC(NC(C)C)=C(S(=O)(=O)C(F)(F)C(F)(F)C(F)(F)C(F)(F)F)S(=O)(=O)C(F)(F)C(F)(F)C(F)(F)C(F)(F)F`, the TGI in the test on COLO 205 colon, in the test on SF-268 CNS, with SK-MEL-2 melanoma and in the test on UACC-62 melanoma was > 100 µM each time.

Turning to `CC(C)(C)/C(=N\Nc1nc2ccccc2[nH]1)c1ccccn1`, the TGI in the test on COLO 205 colon, with SF-268 CNS, in the test on SK-MEL-2 melanoma and with UACC-62 melanoma was > 100 µM throughout.

`CC(=N)OC1CC2CCC1(C)C2(C)C` (centres undefined): the TGI with COLO 205 colon, in the test on SF-268 CNS and with UACC-62 melanoma was > 100 µM throughout.

For the compound `COc1nc(N=P(c2ccccc2)(c2ccccc2)c2ccccc2)cc(=O)[nH]1`, the TGI in the test on COLO 205 colon, in the test on SF-268 CNS, in the test with SK-MEL-2 melanoma and in the test with UACC-62 melanoma was > 100 µM in each case.

Turning to `COC(=O)c1cc2c(cc1CC1Cc3cc4c(cc3C1=O)CCC4)CCC2` (centres undefined), the TGI in the test on COLO 205 colon, with SF-268 CNS, in the test on SK-MEL-2 melanoma and with UACC-62 melanoma was > 100 µM in each case.

As for `NCCCCC(NC(=O)C(N)Cc1ccc(O)cn1)C(=O)O` (centres undefined), the TGI in the test on COLO 205 colon and in the test on SF-268 CNS was > 100 µM in each case.

As to `Nc1cccnc1NCC1(CO)CCCC1`, the TGI in the test on COLO 205 colon, with SF-268 CNS, with SK-MEL-2 melanoma and in the test with UACC-62 melanoma was > 100 µM in each case.

Turning to `CCCCC(=O)c1ccc2ccccc2c1O`, the TGI with COLO 205 colon, with SF-268 CNS, in the test on SK-MEL-2 melanoma and in the test with UACC-62 melanoma was > 100 µM throughout.

As for `Cc1cc2c(cc1C(=O)CCC(=O)O)CC1(C2)Cc2cc(C)c(C(=O)CCC(=O)O)cc2C1`, the TGI with COLO 205 colon, in the test with SF-268 CNS and with SK-MEL-2 melanoma was > 100 µM throughout.

`Cc1ccc(/C(Cl)=C/C=C(C#N)C#N)cc1`: the TGI with COLO 205 colon is 12.1 µM; in the test on SF-268 CNS it was 21.3 µM; with SK-MEL-2 melanoma it was > 100 µM; in the test on UACC-62 melanoma, 15.7 µM.

For the compound `Clc1ccccc1-c1nc2ccc(C34CC5CC(CC(C5)C3)C4)cc2[nH]1`, the TGI in the test on COLO 205 colon was > 100 µM; with SF-268 CNS, > 100 µM; in the test with SK-MEL-2 melanoma, 40.8 µM; with UACC-62 melanoma it was 27.1 µM.

With `OC1(c2ccc(Cl)cc2)C(N2CCCC2)c2ccccc2C2=NCCN21` (centres undefined), the TGI in the test on COLO 205 colon was 23.9 µM; in the test with SF-268 CNS, > 100 µM; in the test on SK-MEL-2 melanoma, 45 µM; with UACC-62 melanoma it was 41.3 µM.

On to `COc1ccccc1NC(=S)Nc1cc(C)cc(C)n1`, for which the TGI in the test on COLO 205 colon, with SF-268 CNS, with SK-MEL-2 melanoma and in the test on UACC-62 melanoma was > 100 µM throughout.

Regarding `COC(=O)/C=C(/C=C1/C(C#N)=C(N)N(c2ccc(Cl)cc2)C1(C)/C(=C/C(=O)OC)C(=O)OC)C(=O)OC` (centres undefined), the TGI with COLO 205 colon, with SF-268 CNS, in the test on SK-MEL-2 melanoma and in the test with UACC-62 melanoma was > 100 µM each time.

The values are drawn from PubChem BioAssay (NCI).
